Results on one molecule are retold here after patent publication US11612629B2, “Pharmaceutical composition for preventing or treating muscle diseases, containing ginseng berry extract as active ingredient” (Holistic Bio Co., Ltd., priority 2018, dated 2023).

In assay [1] the test system is muscle atrophy induced mice. The assay is described as follows: Muscle weight (gastrocnemius, quadriceps) per body weight in immobilization-induced muscle atrophy mice. It is filed as in vivo, C57BL/6 mice. The method, then: (§1) First, 5-week-old male C57BL/6 mice were adapted to the animal laboratory environment for 7 days and then divided into 5 groups according to the experimental conditions. Particularly, the experimental groups were divided into the non-treated control group (normal group, Cont), the group induced with muscle atrophy (induction group, IM), the positive control group induced with muscle atrophy and treated with 370 mg/kg of HMB (beta-hydroxy beta-methlybutyrate) (HMB treated group, HMB 370), the group induced with muscle atrophy and treated with low dose (100 mg/kg) of the Panax ginseng berry extract of Example 1 (Panax ginseng berry extract treated group, GBE 100), and the group induced with muscle atrophy and treated with high dose (200 mg/kg) of the Panax ginseng berry extract of Example 1 (Panax ginseng berry extract treated group, GBE 200). Muscle atrophy was induced by immobilization in which a fixation device made of 1.5 mL microfuge tube, clip and velcro tape was applied to one hind leg of a mouse according to ‘Disease models & mechanisms, 8(9), 1059-1069, 2015’. HMB and the Panax ginseng berry extract were dissolved in 0.5% carboxymethyl cellulose (CMC) and administered to the mouse orally once a day for 14 days from the day of the leg immobilization. After 14 days, the gastrocnemius and quadriceps of the hind leg were extracted, weighed, and standardized based on the body weight.

Assay [2] deals with muscle atrophy induced mice. Put plainly: Muscle fiber size and cross-sectional area of gastrocnemius (H&E, image J) in muscle atrophy induced mice. It is filed as in vivo, C57BL/6 mice. The note with it: 14 days. The procedure:
as §1
Whether the Panax ginseng berry extract alleviates the muscle fiber cross-sectional area reduction caused by muscle atrophy was confirmed by the following method. Particularly, the gastrocnemius tissue extracted in Experimental Example 1-1 was fixed with 4% paraformaldehyde, stained with hematoxylin and eosin (H&E), and the muscle fiber cross-sectional area was quantified using image J software.

Molecules are shown by their SMILES.

For `CC(C)(O)CC(=O)O` [HMB, beta-hydroxy beta-methlybutyrate], the “weight of the quadriceps reduced compared to the normal group” value in assay [1] (370 mg/kg orally once a day for 14 days, induction group (IM) about 33%) is on record as “about 17%”. In assay [1] (370 mg/kg orally once a day for 14 days, induction group (IM) about 40%), the “weight of the gastrocnemius reduced compared to the normal group” value was “about 24%”. Besides, the “protective ability of muscle atrophy (muscle weight)” value in assay [1] (370 mg/kg orally, 14 days, gastrocnemius and quadriceps) is recorded as “about 16%”. Also, the “muscle atrophy protection, muscle fiber cross-sectional area” value in assay [2] (370 mg/kg orally) is reported as “about 13%”. Also, the “muscle fiber cross-sectional area decreased compared to the normal group” value in assay [2] (370 mg/kg orally, induction group about 60%) was “about 47%”. The “reduction in muscle fiber size (FIG. 3)” value in assay [2] (gastrocnemius, HMB 370 mg/kg, extract 100 and 200 mg/kg orally) was “alleviated”.
